Residues, ends and D or L forms follow the SMILES beside them. *: point of attachment. Pyropheophorbide(a) = C=Cc1c(C)c2cc3nc(c4c5[nH]c(cc6nc(cc1[nH]2)C(C)=C6CC)c(C)c5C(=O)C4)[C@@H](CCC(=O)*)[C@@H]3C; Hexanoyl(6-maleimido) = O=C1C=CC(=O)N1CCCCCC(=O)*
Key:
U87 glioblastoma cells [1] = experiment: MTT cytotoxicity in the dark, U87 cells; format: cell-based; conditions: 24 h in the dark, n = 3
Method: (§1) For in vitro experiments, U87 glioblastoma cells (ATCC® HTB-14™) were cultivated in Dulbecco’s modified eagle’s medium (DMEM) supplemented with sodium pyruvate 1.5 mM, MEM AA, MEM NE AA, MEM vitamins, L-Ser 14 μg·mL^−1, L-asp 25 μg·mL^−1, L-Glu 2.5 mM, 100 U·mL^−1 penicillin, 100 μg·mL^−1 streptomycin, and 20% FCS. They were cultured under standard cell culture conditions while incubated in 5% CO2/80% humidified air at 37 °C.
Cell survival of U87 after incubation with the hybrid AuNRs, the PS-peptide conjugate or the free PS in the dark (cytotoxicity) or after light exposure (phototoxicity) was investigated using an MTT assay as previously described. […] However, the phototoxicity induced by those molecules was assessed by exposing the cells to light at a fluence of 10 J·cm^−2 (fluence rate 4.54 mW·cm^−2, duration: 36 min 42 s) using a 652 nm diode laser system (Ceralas, Biolytec, Jena, Germany). […] The cell survival was measured by MTT assay where the cells were incubated for 3 h at 37 °C with 0.4 mg·mL^−1. […] The absorption of formazan was measured at 540 nm with a background subtraction at 630 nm using a Multiskan Ascent plate reader (Thermo Scientific, Vantaa, Finland). […]
All in vitro experiments were realized in triplicate and expressed as a percentage of variation from control cells. […]

U87 glioblastoma cells [2] = experiment: MTT phototoxicity after light exposure, U87 cells; format: cell-based; conditions: 24 h; for decrease of cell viability: then 652 nm, 10 J/cm2 (4.54 mW·cm−2), MTT after further 24 h, triplicate; for PDT efficacy / photodynamic activity (in words): 10, 20 and 30 µM PS, 652 nm, 10 J/cm2, MTT
Method: as §1
Cell survival of U87 after incubation with the hybrid AuNRs, the PS-peptide conjugate or the free PS in the dark (cytotoxicity) or after light exposure (phototoxicity) was investigated using an MTT assay as previously described. Briefly, U87 cells were plated into 48-well plates at an initial cell density of 2 × 10^4 cells/cm^2 in culture medium, incubated at 37 °C during 48 h. Old culture media were discarded and the wells were filled with 250 µL of culture medium containing different concentrations of the tested molecules (AuNRs@PEG-MI-K(Pyro)DKPPR-OH, MI-K(Pyro)DKPPR-OH and Pyro) at a final PS concentration of 10, 20, and 30 μM. After 24 h, the wells were washed three times with HBSS and filled with culture medium. To evaluate the cytotoxicity of the tested molecules towards the U87 cells, one plate was kept incubated in the dark. However, the phototoxicity induced by those molecules was assessed by exposing the cells to light at a fluence of 10 J·cm^−2 (fluence rate 4.54 mW·cm^−2, duration: 36 min 42 s) using a 652 nm diode laser system (Ceralas, Biolytec, Jena, Germany). The cells were further incubated for 24 h. The cell survival was measured by MTT assay where the cells were incubated for 3 h at 37 °C with 0.4 mg·mL^−1. After that, the excess of MTT was discarded and the formazan crystals that developed in the living cells were dissolved by DMSO. The absorption of formazan was measured at 540 nm with a background subtraction at 630 nm using a Multiskan Ascent plate reader (Thermo Scientific, Vantaa, Finland). Experiments were carried out in triplicates.
All in vitro experiments were realized in triplicate and expressed as a percentage of variation from control cells. The results were given as mean ± standard deviation (SD). Differences among groups were evaluated using variance analysis (Anova) followed by Bonferroni test (GraphPad Prism 6.0 software, San Diego, CA, USA). A value of p < 0.05 was considered as statistically significant. * Versus control cells.

UV-vis absorption = format: physicochemical; conditions: ethanol, Soret band
Method: The setup and the protocol to evaluate the photophysical characterizations including the absorption, fluorescence, and singlet oxygen emission spectra in addition to the fluorescence and singlet oxygen lifetimes have been previously described by our team. The absorption spectra were recorded on a UV-3600 UV–vis double beam spectrophotometer (Shimadzu, Marne La Vallée, France) in the wavelength range of 200-800 nm. The measurements were performed on the molecules dispersed in ethanol in quartz cuvettes with an optical path of 10 mm. The fluorescence spectra were recorded on a Horiba Jobin Yvon Fluorolog-3 (FL3-222) spectrofluorimeter equipped with a 450W xenon lamp, a thermostated cell compartment (25 °C), a R928 (Hamamatsu, Massy, France) UV–vis photomultiplier and a liquid nitrogen cooled InGaAs infrared detector (DSS-16A020L Electro-Optical System Inc., Phoenixville, PA, USA). The excitation spectrometer used is a SPEX double grating monochromator (1200 grooves per mm blazed at 330 nm). The fluorescence was measured using the UV–vis detector through a SPEX double grating monochromator (600 grooves per mm blazed at 500 nm). The singlet oxygen production was measured using the IR detector through a SPEX double grating monochromator (600 grooves per mm blazed at 1 μm).
The photophysical properties at the different synthetic stages of the hybrid AuNRs@PEG-MI-K(Pyro)DKPPR-OH, including the peptide derivatives as intermediates, were studied and compared to that of free Pyro. These properties include the UV-vis absorption, the florescence emission (quantum yield (Φf) and lifetime (τf)) and the ^1O2 production (quantum yield (ΦΔ) and lifetime (τΔ)). To determine these properties, the optical density (OD) of the Soret band of the Pyro component (412 nm) was adjusted at about 0.2. Controls, such as TPP dissolved in toluene, as a standard for fluorescence emission, and RB dissolved in ethanol, as a standard for ^1O2 production, were used. Ethanol was chosen to dissolve the studied molecules since it is a convenient solvent for the detection of fluorescence and ^1O2 emission. […]

Row | Compound | dark cytotoxicity (U87 glioblastoma cells [1]; even at PS concentration of 30 µM) | decrease of cell viability (U87 glioblastoma cells [2]; 10 µM PS) [%] | decrease of cell viability (U87 glioblastoma cells [2]; 20 µM PS) [%] | decrease of cell viability (U87 glioblastoma cells [2]; 30 µM PS) [%] | PDT efficacy / photodynamic activity (in words) (U87 glioblastoma cells [2]) | λmax (UV-vis absorption) [nm] | dark cytotoxicity (metabolic activity of U87 cells) (U87 glioblastoma cells [1]; 10 µM PS)
1 | C=Cc1c(C)c2cc3nc(c4c5[nH]c(cc6nc(cc1[nH]2)C(C)=C6CC)c(C)c5C(=O)C4)[C@@H](CCC(=O)NCCCC[C@H](NC(=O)CCCCCN1C(=O)C=CC1=O)C(=O)N[C@@H](CC(=O)O)C(=O)N[C@@H](CCCCN)C(=O)N1CCC[C@H]1C(=O)N1CCC[C@H]1C(=O)N[C@@H](CCCNC(=N)N)C(=O)O)[C@@H]3C [MI-K(Pyro)DKPPR-OH] ({Hexanoyl(6-maleimido)}-K(Pyropheophorbide(a))DKPPR-OH) | no cytotoxic effect | 25 | 46 | 58 | lower photodynamic activity | 412 | 
2 | C=Cc1c(C)c2cc3nc(c4c5[nH]c(cc6nc(cc1[nH]2)C(C)=C6CC)c(C)c5C(=O)C4)[C@@H](CCC(=O)O)[C@@H]3C [Pyro, pyropheophorbide-a, reference compound] |  |  |  |  | low PDT efficacy | 412 | decrease the metabolic activity of U87 cells
